# In US11504394B2, “Targeted ionophore-based metal delivery” (The Regents of the University of California, priority 2018, dated 2022):
# Legend:
# [1] = tested on: mouse model for non-alcoholic fatty liver disease; assay: High fat diet mouse model for non-alcoholic fatty liver disease; format: in vivo, mice
# Method: The potential of Gal-Cu(gtsm) in the treatment of non-alcoholic fatty liver disease (NFALD) was assessed in a mouse model. Mice were subjected to a high fat diet.
# HEK 293T cells = assay: Cell viability, propidium iodide staining, HEK 293T; format: cell-based; details: 500 μM dose, three hours
# Method: Flow cytometry experiments were performed with BD LSR Fortessa Cell Analyzer in the College of Chemistry at UC Berkeley. Gains were set to include live cells based on viability experiments using propidium iodide, with dead cells via 0.1% saponin treatment as a negative control. The standard PE-A (570 nm longpass, 586/15 nm bandpass) was used. For each biological replicate, three technical replicates of 5,000 (HepG2) or 10,000 cells (HEK 293T) were counted. Flow cytometry data was processed using FlowJo (FlowJo, LLC).
# HEK 293T cells were plated in 6-well plates at 60-80% confluency. After ionophore treatment at the given concentration for three hours, cells were washed with DMEM and incubated with 3 μM propidium iodide in PBS for 15 minutes, then rinsed in PBS. HEK 293T cells were mechanically removed via pipetting off the plate with 1 mL PBS and filtered through a 35 μm nylon mesh into 5 mL culture tubes for analysis. HepG2 cells were plated in 12-well plates at 60-80% confluency. […]
# [2] = tested on: alanine transaminase (ALT) activity; assay: Serum alanine transaminase (ALT) assay; format: in vivo, mice; details: 6 hours, 0.75 mg Cu/kg
# Method: Mice were immediately euthanized by cervical dislocation.
# Liver lysate (TBARS Assay via TCA Method, Cayman Chemical) and serum (BUN Assay, Invitrogen; ALT Assay, Cayman Chemical) samples were processed according to manufacturer instructions; sample concentration was selected based on initial dilution screening to fall within linear range of the standard curve. All samples were analyzed in triplicate.
# [3] = Stability in aqueous solutions at different pH (UV-vis); format: physicochemical; details: pH=3 to 8
# Method: All spectroscopic measurements were performed in 20 mM PBS, pH 7.4 unless otherwise indicated. Absorption spectra were acquired on a Varian Cary 50 spectrophotometer.
# [4] = tested on: HEK 293T (no ASGPR expression) cells; assay: Cellular copper delivery by ICP-MS, HEK 293T; format: cell-based; details: 4 μM, three hours, serum-free DMEM
# Method: Cells were maintained by the UC Berkeley Tissue Culture Facility. HEK 293T and HepG2 cells were maintained as a monolayer in exponential growth at 37° C. in a 5% CO2 atmosphere. HEK 293T cells were maintained in Dulbecco's Modified Eagle Medium (DMEM, Gibco) supplemented with 10% fetal bovine serum (FBS, Hyclone), and glutamax (Gibco). HepG2 cells were maintained in low glucose DMEM with L-glutamine and sodium pyruvate (Gibco). One day before ionophore treatment, cells were passaged and plated in DMEM with glutamax supplemented with 10% FBS on either poly D-lysine-coated (HEK 293T) or gelatin-coated (HepG2) sterile 6-well Corning polystyrene plates. Cells were grown to 60 to 80% confluency prior to ionophore treatment.
# Cells were washed twice with serum-free DMEM. 2 mM stock solutions of Cu(gtsm) or Gal-Cu(gtsm) were diluted in serum-free DMEM to a final ionophore concentration of 4 μM. […] Samples (150 μL) were further diluted in 2 mL 2% nitric acid (made freshly from concentrated nitric acid and Milli-Q water) in 15 mL tubes (Sarstedt) and analyzed on a Thermo Fisher iCAP Qc ICP mass spectrometer in kinetic energy discrimination (KED) mode against a standard curve of known copper and phosphorus concentrations (CMS-5, Inorganic Ventures), with Ga (20 μg/L, Inorganic Ventures) as an internal standard. […]
# liver tissue = assay: Liver tissue histology, H&E staining; format: in vivo
# Method: FVB-luc+ mice were injected i.p. with vehicle (50 μL 1:1 DMSO:DPBS), Cu(gtsm), or Gal-Cu(gtsm) at a 0.75 mg Cu/kg mouse dose. After six hours, mice were euthanized with CO2 asphyxiation followed by cervical dislocation and liver tissue was extracted. Liver sections were fixed in a 10% formalin in PBS solution and sent to Histowiz Inc. (Brooklyn, N.Y.) for further processing and hematoxylin & eosin staining.
# SOD = SOD assay in high fat diet mice; format: in vivo; details: vs untreated HFD mice
# [5] = Dynamic light scattering, colloidal aggregate formation; format: physicochemical
# Method: To assess colloidal aggregate formation, Gal-Cu(gtsm) was dissolved in PBS (pH 7.4) to a final concentration of 1 mM. The hydrodynamic diameter (DH) of the formed colloidal particles were determined by dynamic light scattering (DLS) obtained on a Zetasizer® Nano Series (Malvern Instruments, UK) and reported as the number-weighted mean. Samples were filtered with a 0.2 μm syringe filter and measured with a disposable ZEN0040 cuvette. Peaks of varying sizes were found, indicating a polydisperse formation of Gal-Cu(gtsm) aggregates. Measurements were taken in triplicate. Error is reported as the standard deviation from three separate replicates.
smiles,measurement,setting,value
CNC1=N[N+]2=CC=[N+]3N=C(NCCOCCOCCOC4OC(CO)C(O)C(O)C4NC(C)=O)[S][Cu-2]23[S]1 (stereo not shown) [Gal-Cu(gtsm)],tissue copper content (ICP-MS),[1],restores copper homeostasis
same,glucose tolerance test,[1]; vs untreated HFD mice,improved metabolism
same,liver steatosis and fattiness,[1]; vs untreated HFD mice,significantly reduced
same,serum ALT assay,[1]; vs untreated HFD mice,rescued liver health
same,ionophore toxicity (cell viability),HEK 293T cells,non-toxic
same,serum ALT levels compared to vehicle control,[2],virtually the same
same,stability of complex in aqueous buffers,[3],stable
same,Cu increase relative to basal levels (^63Cu/^31P),[4],does not increase cellular copper beyond basal levels
same,toxicity as indicated by liver histology and toxicity assays,liver tissue; 0.75 mg Cu/kg i.p.,non-toxic
same,H&E liver histology,"liver tissue; 6 hours, 0.75 mg Cu/kg mouse",largely resemble those of the vehicle-treated control mice
same,"SOD assay, anti-oxidant activity",SOD,improved anti-oxidant activity
same,number-weighted hydrodynamic diameter,"[5]; 1 mM in PBS (pH 7.4), DLS, error = standard deviation",4.60±0.69 nm
same,colloid formation in aqueous buffer,[5]; aqueous buffer,forms colloids
